Assay results: patent US8367086B1, “Process and product for inhibiting or preventing bacterial infections” (S.S. Steiner, Inc., priority 2004, dated 2013)
In brackets after ≈: the same amount, converted by molar mass.

Experiments:
Assay in all cases: minimum inhibitory concentration (MIC) method
Type in all cases: cell-based
B. megaterium = conditions: 37° C. 24 hours
Procedure: (§1) Another method of determining antimicrobial activity is to assess the Minimum inhibitory concentration (MIC) of the composition under test. […] Thereafter, increased concentrations will have a limiting effect on growth, until the concentration is reached where no growth relative to the control is observed. That point of no growth is the minimum inhibitory concentration. […] A positive control with the bacterium alone was prepared as well as an ethanol control. The tubes were incubated at 37° C. for 24 hours and growth of the bacterium was determined by observing the change in turbidity.

S. salivarius = conditions: 37° C. 24 hours
Procedure: as §1

B. subtilis = conditions: 37° C. 24 hours
Procedure: as §1

S. saprophyticus = conditions: Staphylococcus saprophyticus; exp 1; 37° C. 24 hours; read-out: MIC, agent alone
Procedure: as §1, with “turbidity. […] Since the filing of the original application Ser. […] Pseudomonas fluorescens, Pseudomonas aeruginosa, Proteus vulgaris, Serratia marcescens, Proteus mirabilis and Enterobacter clocae.” for “turbidity.”

COc1cc(O)c(CC=C(C)C)c(O)c1C(=O)/C=C/c1ccc(O)cc1 [X, xanthohumol]
MIC (B. megaterium; Priestia megaterium, exp 2, read-out: MIC, agent alone): 10 µg/mL (≈ 28.2 µM)
MIC, agent alone (B. megaterium; exp 1): 10 µg/mL (≈ 28.2 µM)
MIC (S. salivarius; Streptococcus salivarius, exp 1, read-out: MIC, agent alone): < 10 µg/mL
MIC, agent alone (S. salivarius; exp 2): <10 µg/mL
MIC (B. subtilis; Bacillus subtilis, exp 1, read-out: MIC, agent alone): > 1 µg/mL
MIC, agent alone (B. subtilis; exp 1): >1 µg/mL
MIC, agent alone (B. subtilis; exp 2): >1 µg/mL
MIC (S. saprophyticus): 1 to 10 µg/mL (≈ 2.82 to 28.2 µM)
